# Experimental data taken from patent publication US9476099B2 (TRUSTEES OF DARTMOUTH COLLEGE, priority 2012, dated 2016).
# Test system: gene promoters in NT2/D1-R1 control and DNMT3B knockdown cells
# Assay: Genome-wide promoter methylation analysis, HumanMethylation27 BeadChip (Table 15)
# Type: cell-based, human
# Details: sh-ctrl + 5aza
# Experimental: DNA methylation analysis was performed in samples in triplicate using the […] […] assay with the HumanMethylation27 BeadChip ([…]) and the BeadChip was scanned on the BeadArray Reader ([…]), according to the manufacturer's instructions. Raw data was normalized and analyzed with Genome Studio software ([…]). The HumanMethylation27 BeadChip assays 27,578 CpGs covering more than 14,000 genes, mostly from promoter regions. […] Hierarchical clustering was performed as stated above. HumanMethylation27 BeadChip data and gene expression microarray data were submitted to NCBI GEO.
smiles,measurement,setting,value
Nc1ncn([C@H]2C[C@H](O)[C@@H](CO)O2)c(=O)n1 [5aza],SERPING1 cg12783776 promoter methylation Mean,,0.601
same,SFRS16 cg19317638 promoter methylation Mean,,0.560
same,SFXN3 cg04880063 promoter methylation Mean,,0.170
same,SH3BGRL2 cg03080985 promoter methylation Mean,,0.398
same,SHH cg25167838 promoter methylation Mean,,0.175
same,SKIP cg04072323 promoter methylation Mean,,0.432
same,SLC30A2 cg05674944 promoter methylation Mean,,0.658
same,SMCP cg09542291 promoter methylation Mean,,0.705
same,SNX9 cg26845300 promoter methylation Mean,,0.985
same,SOX17 cg21226224 promoter methylation Mean,,0.858
same,SPRR1B cg24884084 promoter methylation Mean,,0.488
same,SSH1 cg11747499 promoter methylation Mean,,0.529
same,SSTR1 cg27590397 promoter methylation Mean,,1.209
same,TAC1 cg07550362 promoter methylation Mean,,0.798
same,TADA3L cg09279263 promoter methylation Mean,,0.445
same,TERT cg02545192 promoter methylation Mean,,0.547
same,TNFSF10 cg16555388 promoter methylation Mean,,0.687
same,TNRC4 cg26093148 promoter methylation Mean,,0.866
same,TNRC15 cg07230446 promoter methylation Mean,,0.425
same,TRAF3 cg24165760 promoter methylation Mean,,0.878
same,TRIM2 cg12793610 promoter methylation Mean,,0.815
same,TRIM36 cg10693071 promoter methylation Mean,,0.822
same,TRPM3 cg20555507 promoter methylation Mean,,0.413
same,UNC5D cg00297600 promoter methylation Mean,,0.612
same,WDR13 cg25053301 promoter methylation Mean,,0.317
same,ZFHX1B cg15377518 promoter methylation Mean,,0.680
same,ZNF222 cg09757277 promoter methylation Mean,,0.431
same,cg07512517 promoter methylation Mean,,0.619
same,"Mean promoter methylation, ABCA3 cg02331561",NT2/D1-R1 control cells,0.189
same,"Mean promoter methylation, ABLIM3 cg05026186",NT2/D1-R1 control cells,0.365
same,"Mean promoter methylation, ACTL6B cg08572611",NT2/D1-R1 control cells,0.210
same,"Mean promoter methylation, ANKRD46 cg23737055",NT2/D1-R1 control cells,0.329
same,"Mean promoter methylation, ARNT2 cg17788682",NT2/D1-R1 control cells,0.212
same,"Mean promoter methylation, B4GALNT3 cg05769161",NT2/D1-R1 control cells,0.577
same,"Mean promoter methylation, BTBD1 cg16958189",NT2/D1-R1 control cells,0.392
same,"Mean promoter methylation, C1RL cg22593785",NT2/D1-R1 control cells,0.347
same,"Mean promoter methylation, C10orf10 cg17186163",NT2/D1-R1 control cells,0.371
same,"Mean promoter methylation, C10orf72 cg02569613",NT2/D1-R1 control cells,0.553
same,"Mean promoter methylation, C12orf34 cg01335367",NT2/D1-R1 control cells,0.987
same,"Mean promoter methylation, C17orf40 cg18042079",NT2/D1-R1 control cells,0.207
same,"Mean promoter methylation, C19orf30 cg07456645",NT2/D1-R1 control cells,0.552
same,"Mean promoter methylation, C20orf29 cg09158909",NT2/D1-R1 control cells,0.322
same,"Mean promoter methylation, C22orf9 cg11221513",NT2/D1-R1 control cells,0.402
same,"Mean promoter methylation, CACNA1G cg18454685",NT2/D1-R1 control cells,0.587
same,"Mean promoter methylation, CAMKK2 cg01369981",NT2/D1-R1 control cells,0.344
same,"Mean promoter methylation, CART cg23300372",NT2/D1-R1 control cells,0.445
same,"Mean promoter methylation, CCKBR cg13346411",NT2/D1-R1 control cells,0.411
same,"Mean promoter methylation, CDC42EP1 cg13951472",NT2/D1-R1 control cells,0.342
same,"Mean promoter methylation, CDKN2A cg10895543",NT2/D1-R1 control cells,0.249
same,"Mean promoter methylation, CHST8 cg24739326",NT2/D1-R1 control cells,0.660
same,"Mean promoter methylation, CPSF1 cg20326853",NT2/D1-R1 control cells,0.408
same,"Mean promoter methylation, CSMD1 cg22619018",NT2/D1-R1 control cells,0.365
same,"Mean promoter methylation, DCTN3 cg22579849",NT2/D1-R1 control cells,0.613
same,"Mean promoter methylation, DDX42 cg05797656",NT2/D1-R1 control cells,0.226
same,"Mean promoter methylation, DGKD cg25506396",NT2/D1-R1 control cells,0.238
same,"Mean promoter methylation, DGKI cg06277657",NT2/D1-R1 control cells,0.365
same,"Mean promoter methylation, DKK2 cg01404615",NT2/D1-R1 control cells,0.819
same,"Mean promoter methylation, DUSP8 cg02271621",NT2/D1-R1 control cells,0.296
same,"Mean promoter methylation, EHD2 cg12603043",NT2/D1-R1 control cells,0.398
same,"Mean promoter methylation, ELK1 cg21860846",NT2/D1-R1 control cells,0.343
same,"Mean promoter methylation, EMP3 cg01795122",NT2/D1-R1 control cells,0.187
same,"Mean promoter methylation, EYA4 cg01805282",NT2/D1-R1 control cells,0.360
same,"Mean promoter methylation, FAM70B cg15350194",NT2/D1-R1 control cells,0.396
same,"Mean promoter methylation, FAM73B cg00729541",NT2/D1-R1 control cells,0.365
same,"Mean promoter methylation, FCHSD2 cg17114257",NT2/D1-R1 control cells,0.423
same,"Mean promoter methylation, FLJ20273 cg01704534",NT2/D1-R1 control cells,0.410
same,"Mean promoter methylation, FLJ20273 cg15967525",NT2/D1-R1 control cells,0.759
same,"Mean promoter methylation, FLJ42486 cg03734874",NT2/D1-R1 control cells,0.711
same,"Mean promoter methylation, GAB3 cg12938998",NT2/D1-R1 control cells,0.347
same,"Mean promoter methylation, GALR1 cg04534765",NT2/D1-R1 control cells,0.440
same,"Mean promoter methylation, GCN5L2 cg08434547",NT2/D1-R1 control cells,0.555
same,"Mean promoter methylation, GNAS cg00943909",NT2/D1-R1 control cells,0.621
same,"Mean promoter methylation, HBQ1 cg07703401",NT2/D1-R1 control cells,0.587
same,"Mean promoter methylation, HCN1 cg11285003",NT2/D1-R1 control cells,0.369
same,"Mean promoter methylation, HES6 cg24127874",NT2/D1-R1 control cells,0.763
same,"Mean promoter methylation, HEYL cg25462291",NT2/D1-R1 control cells,0.576
same,"Mean promoter methylation, HRH3 cg08186362",NT2/D1-R1 control cells,0.666
same,"Mean promoter methylation, ICAM1 cg22874046",NT2/D1-R1 control cells,0.349
same,"Mean promoter methylation, ID2 cg23525180",NT2/D1-R1 control cells,0.576
same,"Mean promoter methylation, IGFBP3 cg04796162",NT2/D1-R1 control cells,0.501
same,"Mean promoter methylation, KATNB1 cg15153383",NT2/D1-R1 control cells,0.474
same,"Mean promoter methylation, KCNAB1 cg23873703",NT2/D1-R1 control cells,0.548
same,"Mean promoter methylation, KCNC2 cg18573383",NT2/D1-R1 control cells,0.277
same,"Mean promoter methylation, KIAA1822 cg02867079",NT2/D1-R1 control cells,0.842
same,"Mean promoter methylation, KIAA1840 cg06121469",NT2/D1-R1 control cells,0.365
same,"Mean promoter methylation, KRTCAP2 cg11278262",NT2/D1-R1 control cells,0.432
same,"Mean promoter methylation, LGALS1 cg00292662",NT2/D1-R1 control cells,0.493
same,"Mean promoter methylation, LGR6 cg23578193",NT2/D1-R1 control cells,0.423
same,"Mean promoter methylation, LOX cg06508445",NT2/D1-R1 control cells,0.190
same,"Mean promoter methylation, MAP6D1 cg03705396",NT2/D1-R1 control cells,0.522
same,"Mean promoter methylation, MGC9850 cg21097640",NT2/D1-R1 control cells,0.292
same,"Mean promoter methylation, MRPL38 cg11653266",NT2/D1-R1 control cells,0.224
same,"Mean promoter methylation, MT cg14078309",NT2/D1-R1 control cells,0.213
same,"Mean promoter methylation, MYOD1 cg18555440",NT2/D1-R1 control cells,0.561
same,"Mean promoter methylation, OGG1 cg25415932",NT2/D1-R1 control cells,0.526
same,"Mean promoter methylation, OR10J1 cg25076881",NT2/D1-R1 control cells,0.576
same,"Mean promoter methylation, OSTbeta cg16029760",NT2/D1-R1 control cells,0.344
same,"Mean promoter methylation, PABPC4 cg12585282",NT2/D1-R1 control cells,0.296
same,"Mean promoter methylation, PDE8B cg18089852",NT2/D1-R1 control cells,0.203
same,"Mean promoter methylation, PHLDA2 cg01263716",NT2/D1-R1 control cells,0.504
same,"Mean promoter methylation, PHLDA2 cg04720330",NT2/D1-R1 control cells,0.379
same,"Mean promoter methylation, PIB5PA cg18053607",NT2/D1-R1 control cells,0.403
same,"Mean promoter methylation, PLOD1 cg23286660",NT2/D1-R1 control cells,0.468
same,"Mean promoter methylation, PPCDC cg11632617",NT2/D1-R1 control cells,0.523
same,"Mean promoter methylation, PRDM12 cg09191327",NT2/D1-R1 control cells,0.457
same,"Mean promoter methylation, PRMT8 cg23739862",NT2/D1-R1 control cells,0.125
same,"Mean promoter methylation, PTPRO cg19402885",NT2/D1-R1 control cells,0.671
same,"Mean promoter methylation, PTPRO cg27196745",NT2/D1-R1 control cells,0.570
same,"Mean promoter methylation, R3HDML cg17692403",NT2/D1-R1 control cells,0.529
same,"Mean promoter methylation, RAB37 cg12448933",NT2/D1-R1 control cells,0.483
same,"Mean promoter methylation, RASA4 cg05749161",NT2/D1-R1 control cells,0.157
same,"Mean promoter methylation, RASL11A cg06611744",NT2/D1-R1 control cells,0.348
same,"Mean promoter methylation, SCAMP3 cg01745448",NT2/D1-R1 control cells,0.308
same,"Mean promoter methylation, SCARA5 cg10171125",NT2/D1-R1 control cells,0.408
same,"Mean promoter methylation, SEC14L2 cg14452140",NT2/D1-R1 control cells,0.705
same,"Mean promoter methylation, SH3BGRL3 cg03100146",NT2/D1-R1 control cells,0.661
same,"Mean promoter methylation, SHH cg00577464",NT2/D1-R1 control cells,0.433
same,"Mean promoter methylation, SLC6A5 cg20632573",NT2/D1-R1 control cells,0.291
same,"Mean promoter methylation, SLC25A22 cg02973416",NT2/D1-R1 control cells,0.702
same,"Mean promoter methylation, SLC35C2 cg02413850",NT2/D1-R1 control cells,0.254
same,"Mean promoter methylation, SLIT1 cg07143898",NT2/D1-R1 control cells,0.325
same,"Mean promoter methylation, SORCS3 cg16787600",NT2/D1-R1 control cells,0.786
same,"Mean promoter methylation, SOX15 cg01029592",NT2/D1-R1 control cells,0.276
same,"Mean promoter methylation, SOX15 cg13098960",NT2/D1-R1 control cells,0.472
same,"Mean promoter methylation, SOX17 cg02919422",NT2/D1-R1 control cells,0.617
same,"Mean promoter methylation, STXBP3 cg11666924",NT2/D1-R1 control cells,0.260
same,"Mean promoter methylation, SUSD2 cg23349242",NT2/D1-R1 control cells,0.631
same,"Mean promoter methylation, TBXA2R cg09998229",NT2/D1-R1 control cells,0.659
same,"Mean promoter methylation, THAP3 cg11688219",NT2/D1-R1 control cells,0.581
same,"Mean promoter methylation, TMEM25 cg20001829",NT2/D1-R1 control cells,0.424
same,"Mean promoter methylation, TMEM106C cg25884854",NT2/D1-R1 control cells,0.482
same,"Mean promoter methylation, TRAPPC1 cg01667702",NT2/D1-R1 control cells,0.471
same,"Mean promoter methylation, UBA52 cg24356797",NT2/D1-R1 control cells,0.192
same,"Mean promoter methylation, UNQ2446 cg10574499",NT2/D1-R1 control cells,0.619
same,"Mean promoter methylation, VPREB1 cg18441959",NT2/D1-R1 control cells,0.524
same,"Mean promoter methylation, ZGPAT cg04078896",NT2/D1-R1 control cells,0.308
same,"Mean promoter methylation, ZGPAT cg18611245",NT2/D1-R1 control cells,0.736
same,"Mean promoter methylation, ZNF585B cg03751813",NT2/D1-R1 control cells,0.392
same,"Mean promoter methylation, ZNF702 cg07559730",NT2/D1-R1 control cells,0.457
